Measurements from US11135234B2, “Effective aminoglycoside antibiotic for multidrug-resistant bacteria” (MICROBIAL CHEMISTRY RESEARCH FOUNDATION, priority 2015, dated 2021).
≈ marks a conversion by molar mass, not a printed value.

Assays:
P. aeruginosa MSC17707 = experiment: MIC, agar plate dilution method, P. aeruginosa MSC17707; type: cell-based, Pseudomonas aeruginosa; details: P. aeruginosa MSC17707, AMK-resistant
How it was run: (§1)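 Strains were tested on agar plates containing diluted compound, and the MIC (μg/mL) was recorded according to the Japan Society of Chemotherapy protocol.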

[1] = test system: K. pneumoniae ATCC BAA-1705; experiment: MIC, agar plate dilution method, K. pneumoniae ATCC BAA-1705; type: cell-based, Klebsiella pneumoniae; details: K. pneumoniae ATCC BAA-1705, KPC-producing strain
How it was run: as §1

S. aureus RN4220 = experiment: MIC, agar plate dilution method, S. aureus RN4220; type: cell-based, Staphylococcus aureus; details: S. aureus RN4220, Sensitive bacterium
How it was run: as §1

[2] = test system: K. pneumoniae ATCC BAA-2146; experiment: MIC, agar plate dilution method, K. pneumoniae ATCC BAA-2146; type: cell-based, Klebsiella pneumoniae; details: K. pneumoniae ATCC BAA-2146, NDM-producing strain
How it was run: as §1

P. aeruginosa PAO1 = experiment: MIC, agar plate dilution method, P. aeruginosa PAO1; type: cell-based, Pseudomonas aeruginosa; details: P. aeruginosa PAO1, Sensitive bacterium
How it was run: as §1

E. coli JM109/pMW218 = experiment: MIC, agar plate dilution method, E. coli JM109/pMW218; type: cell-based, Escherichia coli; details: E. coli JM109/pMW218, Sensitive bacterium
How it was run: as §1

S. aureus MF490 = experiment: MIC, agar plate dilution method, S. aureus MF490; type: cell-based, Staphylococcus aureus; details: S. aureus MF490, MRSA
How it was run: as §1

P. aeruginosa PAO1/GN315 = experiment: MIC, agar plate dilution method, P. aeruginosa PAO1/GN315; type: cell-based, Pseudomonas aeruginosa; details: P. aeruginosa PAO1/GN315, AMK-resistant
How it was run: as §1

S. marcescens TH-0447 = experiment: MIC, agar plate dilution method, S. marcescens TH-0447; type: cell-based, Serratia marcescens; details: S. marcescens TH-0447, AMK-resistant
How it was run: as §1

S. aureus RN4220/pMS520 = experiment: MIC, agar plate dilution method, S. aureus RN4220/pMS520; type: cell-based, Staphylococcus aureus; details: S. aureus RN4220/pMS520, MRSA
How it was run: as §1

S. marcescens GN6944 = experiment: MIC, agar plate dilution method, S. marcescens GN6944; type: cell-based, Serratia marcescens; details: S. marcescens GN6944, GM-resistant
How it was run: as §1

P. aeruginosa MSC01035 = experiment: MIC, agar plate dilution method, P. aeruginosa MSC01035; type: cell-based, Pseudomonas aeruginosa; details: P. aeruginosa MSC01035, ABK-resistant
How it was run: as §1

[3] = test system: A. baumannii ATCC BAA-1710; experiment: MIC, agar plate dilution method, A. baumannii ATCC BAA-1710; type: cell-based, Acinetobacter baumannii; details: A. baumannii ATCC BAA-1710, MDRA
How it was run: as §1

E. faecium ATCC19434 = experiment: MIC, agar plate dilution method, E. faecium ATCC19434; type: cell-based, Enterococcus faecium; details: E. faecium ATCC19434
How it was run: as §1

Row | Structure (SMILES) | minimal inhibitory concentration (MIC) (P. aeruginosa MSC17707) | minimal inhibitory concentration (MIC) [1] | minimal inhibitory concentration (MIC) (S. aureus RN4220) | minimal inhibitory concentration (MIC) [2] | minimal inhibitory concentration (MIC) (P. aeruginosa PAO1) | minimal inhibitory concentration (MIC) (E. coli JM109/pMW218) | minimal inhibitory concentration (MIC) (S. aureus MF490) | minimal inhibitory concentration (MIC) (P. aeruginosa PAO1/GN315) | minimal inhibitory concentration (MIC) (S. marcescens TH-0447) | minimal inhibitory concentration (MIC) (S. aureus RN4220/pMS520) | minimal inhibitory concentration (MIC) (S. marcescens GN6944) | minimal inhibitory concentration (MIC) (P. aeruginosa MSC01035) | minimal inhibitory concentration (MIC) [3] | minimal inhibitory concentration (MIC) (E. faecium ATCC19434)
1 | CN[C@@H]1[C@@H](O[C@H]2O[C@H](CO)[C@@H](NC)[C@H](O)[C@H]2O)O[C@H]2C[C@@H](N)[C@@H](O[C@H]3CC[C@H](N)C[C@@H]3N)O[C@@H]2[C@@H]1O [Compound T2-a, 5,6-dideoxy-4″-N-methylapramycin] | 4 µg/mL (≈ 7.67 µM) | 1 µg/mL (≈ 1.92 µM) | 2 µg/mL (≈ 3.83 µM) | 1 µg/mL (≈ 1.92 µM) | 4 µg/mL (≈ 7.67 µM) | 0.5 µg/mL (≈ 0.959 µM) | 8 µg/mL (≈ 15.3 µM) | 4 µg/mL (≈ 7.67 µM) | 4 µg/mL (≈ 7.67 µM) | 1 µg/mL (≈ 1.92 µM) | 4 µg/mL (≈ 7.67 µM) | 4 µg/mL (≈ 7.67 µM) | 4 µg/mL (≈ 7.67 µM) | 8 µg/mL (≈ 15.3 µM)
2 | CNC1C(OC2OC(C)C(N)C(O)C2O)OC2CC(N)C(OC3C(N)CC(N)CC3O)OC2C1O (stereo not shown) [Compound Q4, 6,6″-dideoxy-5-epiapramycin] | 8 µg/mL (≈ 15.8 µM) | 1 µg/mL (≈ 1.97 µM) | 2 µg/mL (≈ 3.94 µM) | 1 µg/mL (≈ 1.97 µM) | 4 µg/mL (≈ 7.88 µM) | 0.5 µg/mL (≈ 0.985 µM) | 4 µg/mL (≈ 7.88 µM) | 4 µg/mL (≈ 7.88 µM) | 4 µg/mL (≈ 7.88 µM) | 1 µg/mL (≈ 1.97 µM) | 4 µg/mL (≈ 7.88 µM) | 8 µg/mL (≈ 15.8 µM) | 8 µg/mL (≈ 15.8 µM) | 8 µg/mL (≈ 15.8 µM)
3 | CN[C@@H]1[C@@H](O[C@H]2O[C@H](CO)[C@@H](NC(=N)N)[C@H](O)[C@H]2O)O[C@H]2C[C@@H](N)[C@@H](O[C@H]3[C@@H](O)[C@@H](O)[C@H](N)C[C@@H]3N)O[C@@H]2[C@@H]1O [Compound S1-j, 4″-deamino-5-epi-4″-guanidinoapramycin] | 4 µg/mL (≈ 6.88 µM) | 1 µg/mL (≈ 1.72 µM) | 2 µg/mL (≈ 3.44 µM) | 1 µg/mL (≈ 1.72 µM) | 2 µg/mL (≈ 3.44 µM) | 0.5 µg/mL (≈ 0.86 µM) | 4 µg/mL (≈ 6.88 µM) | 4 µg/mL (≈ 6.88 µM) | 4 µg/mL (≈ 6.88 µM) | 1 µg/mL (≈ 1.72 µM) | 4 µg/mL (≈ 6.88 µM) | 4 µg/mL (≈ 6.88 µM) | 4 µg/mL (≈ 6.88 µM) | 8 µg/mL (≈ 13.8 µM)
4 | CNCC(=O)N[C@@H]1C(CO)O[C@H](OC2O[C@H]3CC(N)[C@@H](O[C@@H]4C(N)C[C@@H](N)C(O)[C@H]4O)OC3C(O)C2NC)C(O)[C@H]1O (stereo partly drawn) [Compound V1-j, 5-epi-4″-N-sarcosylapramycin] | 2 µg/mL (≈ 3.28 µM) | 1 µg/mL (≈ 1.64 µM) | 2 µg/mL (≈ 3.28 µM) | 1 µg/mL (≈ 1.64 µM) | 2 µg/mL (≈ 3.28 µM) | 1 µg/mL (≈ 1.64 µM) | 4 µg/mL (≈ 6.55 µM) | 4 µg/mL (≈ 6.55 µM) | 8 µg/mL (≈ 13.1 µM) | 2 µg/mL (≈ 3.28 µM) | 8 µg/mL (≈ 13.1 µM) | 4 µg/mL (≈ 6.55 µM) | 8 µg/mL (≈ 13.1 µM) | 8 µg/mL (≈ 13.1 µM)
5 | CNC1C(OC2CC(O)C(N)C(CO)O2)OC2CC(N)C(OC3C(N)CC(N)C(O)C3O)OC2C1O (stereo not shown) [Compound Y3, 2″-deoxy-5,3″-diepiapramycin] | 8 µg/mL (≈ 15.3 µM) | 2 µg/mL (≈ 3.82 µM) | 2 µg/mL (≈ 3.82 µM) | 2 µg/mL (≈ 3.82 µM) | 4 µg/mL (≈ 7.64 µM) | 1 µg/mL (≈ 1.91 µM) | 4 µg/mL (≈ 7.64 µM) | 8 µg/mL (≈ 15.3 µM) | 8 µg/mL (≈ 15.3 µM) | 2 µg/mL (≈ 3.82 µM) | 4 µg/mL (≈ 7.64 µM) | 16 µg/mL (≈ 30.6 µM) | 8 µg/mL (≈ 15.3 µM) | 8 µg/mL (≈ 15.3 µM)
6 | CNC1C(OC2OC(CO)C(N)CC2O)OC2CC(N)C(OC3C(N)CC(N)C(O)C3O)OC2C1O (stereo not shown) [Compound M9, 3″-deoxy-5-epiapramycin] | 4 µg/mL (≈ 7.64 µM) | 1 µg/mL (≈ 1.91 µM) | 1 µg/mL (≈ 1.91 µM) | 1 µg/mL (≈ 1.91 µM) | 2 µg/mL (≈ 3.82 µM) | 1 µg/mL (≈ 1.91 µM) | 4 µg/mL (≈ 7.64 µM) | 4 µg/mL (≈ 7.64 µM) | 4 µg/mL (≈ 7.64 µM) | 2 µg/mL (≈ 3.82 µM) | 4 µg/mL (≈ 7.64 µM) | 4 µg/mL (≈ 7.64 µM) | 4 µg/mL (≈ 7.64 µM) | 8 µg/mL (≈ 15.3 µM)
7 | CN[C@@H]1[C@@H](O[C@H]2O[C@H](CO)[C@@H](N)[C@H](O)[C@H]2O)O[C@H]2C[C@@H](N)[C@@H](O[C@@H]3[C@@H](N)C[C@@H](N)C[C@@H]3O)O[C@@H]2[C@@H]1O [Compound C6, 6-deoxy-5-epiapramycin] | 8 µg/mL (≈ 15.3 µM) | 2 µg/mL (≈ 3.82 µM) | 4 µg/mL (≈ 7.64 µM) | 1 µg/mL (≈ 1.91 µM) | 4 µg/mL (≈ 7.64 µM) | 1 µg/mL (≈ 1.91 µM) | 8 µg/mL (≈ 15.3 µM) | 4 µg/mL (≈ 7.64 µM) | 8 µg/mL (≈ 15.3 µM) | 4 µg/mL (≈ 7.64 µM) | 4 µg/mL (≈ 7.64 µM) | 8 µg/mL (≈ 15.3 µM) | 8 µg/mL (≈ 15.3 µM) | 16 µg/mL (≈ 30.6 µM)
8 | CNC1C(OC2OC(CO)C(N)C(O)C2O)OC2CC(N)C(OC3C(N)CC(N)C(O)C3O)OC2C1O (stereo not shown) [Compound I3, 2″,3″-diepiapramycin] | 32 µg/mL (≈ 59.3 µM) | 4 µg/mL (≈ 7.41 µM) | 8 µg/mL (≈ 14.8 µM) | 4 µg/mL (≈ 7.41 µM) | 16 µg/mL (≈ 29.7 µM) | 4 µg/mL (≈ 7.41 µM) | 32 µg/mL (≈ 59.3 µM) | 32 µg/mL (≈ 59.3 µM) | 32 µg/mL (≈ 59.3 µM) | 8 µg/mL (≈ 14.8 µM) | 16 µg/mL (≈ 29.7 µM) | 64 µg/mL (≈ 119 µM) | 16 µg/mL (≈ 29.7 µM) | 32 µg/mL (≈ 59.3 µM)
